Read-outs that look alike come from different tables or passages of the source.
Biological target: T1, Aβ42 (amyloid beta) (Homo sapiens, UniProt P05067)
T1 construct: gene APP
Experiment: Thioflavin T fibrillization assay with purified Aβ[…] peptide
Type: biochemical

T1 sequence (P05067 672-713 limits assumed): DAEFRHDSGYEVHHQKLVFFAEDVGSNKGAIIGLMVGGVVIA

IC50 (read-out: IC50) [nM] | SMILES | IC50 [nM]
680 ± 50 | CCOc1ccc(-c2nc3cc(-c4nc5cc(N6CCN(C)CC6)ccc5[nH]4)ccc3[nH]2)cc1 [Hoechst 33342] | 
 | CN1CCN(c2ccc3[nH]c(-c4ccc5[nH]c(-c6ccc(N(C)C)cc6)nc5c4)nc3c2)CC1 [Hoechst 34580] | 860 ± 50
